This is an account of results in ChEMBL document CHEMBL2062522, “Halogenated spirotetronates from Actinoallomurus” (J Nat Prod, 2012).

Molecules are shown by their SMILES. In brackets after ≈: the same amount, converted by molar mass. Activity calls are given as the source filed them.

Assay [1] relates to Staphylococcus aureus. Description: Antibacterial activity against glycopeptide-intermediate Staphylococcus aureus isolate L3798 by broth microdilution method. In kind it is functional. (In general: In broth dilution the organism is exposed to a series of concentrations in liquid medium.)
Assay [2] concerns Enterococcus faecalis. Description: Antibacterial activity against vancomycin-sensitive Enterococcus faecalis isolate L559 by broth microdilution method. In kind it is functional.
In assay [3] the test system is Enterococcus faecium. Description: Antibacterial activity against vancomycin-resistant Enterococcus faecium isolate L569 by broth microdilution method. In kind it is functional.
In assay [4] the test system is Staphylococcus haemolyticus. Description: Antibacterial activity against methicillin-sensitive Staphylococcus haemolyticus isolate L1730 by broth microdilution method. In kind it is functional.
Assay [5] deals with Staphylococcus haemolyticus. Description: Antibacterial activity against methicillin-resistant Staphylococcus haemolyticus isolate L1729 by broth microdilution method. In kind it is functional.
Assay [6] concerns Staphylococcus aureus. Description: Antibacterial activity against glycopeptide-intermediate,methicillin-resistant Staphylococcus aureus isolate L3797 by broth microdilution method. The class given is functional.
Assay [7] has as its system Streptococcus pneumoniae. Description: Antibacterial activity against penicillin-sensitive Streptococcus pneumoniae isolate L44 by broth microdilution method.
In assay [8] the test system is Enterococcus faecalis. Description: Antibacterial activity against vancomycin-resistant Enterococcus faecalis isolate L560 by broth microdilution method. The class given is functional.
Assay [9] has as its system Streptococcus pyogenes. Description: Antibacterial activity against Streptococcus pyogenes isolate L49 by broth microdilution method. The class given is functional.
The test system of assay [10] is Streptococcus pneumoniae. Description: Antibacterial activity against Streptococcus pneumoniae BAA1402 expressing MefE efflux pump by broth microdilution method. In kind it is functional.
The subject of assay [11] is Enterococcus faecium. Description: Antibacterial activity against vancomycin-sensitive Enterococcus faecium isolate L568 by broth microdilution method. The class given is functional.
The subject of assay [12] is Staphylococcus aureus. Description: Antibacterial activity against methicillin-sensitive Staphylococcus aureus ATCC 25923 by broth microdilution method. In kind it is functional.
Assay [13] can be described thus: cells. The note with it: Homo sapiens, HMEC-1, 72 h.
Description: Cytotoxicity against human HMEC1 cells after 72 hrs by MTT assay
Assay [14] deals with Staphylococcus aureus. Description: Antibacterial activity against methicillin-sensitive Staphylococcus aureus ATCC 6538P by broth microdilution method. The class given is functional.
Assay [15] relates to Candida albicans. Description: Antifungal activity against Candida albicans. The class given is functional, organism-based.
For assay [16], the system named is Staphylococcus aureus. Description: Antibacterial activity against methicillin-sensitive Staphylococcus aureus ATCC 29213 by broth microdilution method. In kind it is functional.
A short description of assay [17]: Cytotoxicity against mouse BMDM cells after 72 hrs by MTT assay. The class given is cell-based.
Assay [18] concerns Staphylococcus aureus. Description: Antibacterial activity against methicillin-resistant Staphylococcus aureus isolate L1400 by broth microdilution method. The class given is functional.

The term MIC denotes the smallest concentration in the dilution series that meets the test's criterion for growth inhibition. The low end stands for a more susceptible organism, the high end for a less susceptible organism. In the case of `CN[C@H](CC(C)C)C(=O)N[C@H]1C(=O)N[C@@H](CC(N)=O)C(=O)N[C@H]2C(=O)N[C@H]3C(=O)N[C@H](C(=O)N[C@H](C(=O)O)c4cc(O)cc(O)c4-c4cc3ccc4O)[C@H](O)c3ccc(c(Cl)c3)Oc3cc2cc(c3O[C@@H]2O[C@H](CO)[C@@H](O)[C@H](O)[C@H]2O[C@H]2C[C@](C)(N)[C@H](O)[C@H](C)O2)Oc2ccc(cc2Cl)[C@H]1O` [VANCOMYCIN], the MIC is 8 µg/mL (≈ 5.52 µM) in [1]; 1 µg/mL (≈ 0.69 µM) in assay [2]; above 128 µg/mL in assay [3]; 1 µg/mL (≈ 0.69 µM) in [4]; 2 µg/mL (≈ 1.38 µM) in assay [5]; above 128 µg/mL in [6]. The MIC was 0.5 µg/mL (≈ 0.345 µM) in assay [7], above 128 µg/mL in assay [8], 1 µg/mL (≈ 0.69 µM) in [9] and 4 µg/mL (≈ 2.76 µM) in assay [10].
As a reminder, the IC50 is the concentration that gives 50% inhibition. A high value points to weaker potency. In the case of `CC[C@H]1C[C@@]23OC(=O)C(=C2O)C(=O)[C@]2(CC)[C@@H](C=C[C@@H]4[C@@H](O[C@H]5C[C@@H](O)[C@H](NC(=O)c6[nH]c(Cl)cc6Cl)[C@@H](C)O5)[C@@H](C)CC[C@@H]42)CCCC/C=C/[C@@]3(C)C=C1C(=O)O`, the MIC came to 8 µg/mL (≈ 9.48 µM) in assay [11]; 1 µg/mL (≈ 1.19 µM) in assay [1]; 0.5 µg/mL (≈ 0.593 µM) in assay [2]; 4 µg/mL (≈ 4.74 µM) in [3]; 1 µg/mL (≈ 1.19 µM) in assay [4]; 1 µg/mL (≈ 1.19 µM) in assay [5]. The MIC in assay [6] came out at 0.5 µg/mL (≈ 0.593 µM); in assay [12], 0.5 µg/mL (≈ 0.593 µM); in assay [7], 4 µg/mL (≈ 4.74 µM); in assay [14], 0.5 µg/mL (≈ 0.593 µM); in assay [16] it was 0.25 µg/mL (≈ 0.296 µM); in [8], 0.5 µg/mL (≈ 0.593 µM). Further, the MIC in [9] was 2 µg/mL (≈ 2.37 µM); in [10], 64 µg/mL (≈ 75.8 µM); in assay [18], 1 µg/mL (≈ 1.19 µM). In addition, the results for the IC50 in [13] and in assay [17] were 9000 nM and 50 µM, respectively. Besides, the result in assay [15] was inactive.
Take `COc1cccc2c1C(=O)c1c(O)c3c(c(O)c1C2=O)C[C@@](O)(C(=O)CO)C[C@@H]3O[C@H]1C[C@H](N)[C@H](O)[C@H](C)O1` [DOXORUBICIN]: the IC50 was found to be 60 nM in assay [13] and 4.6 µM in [17].
For the molecule `CC[C@H]1C[C@@]23OC(=O)C(=C2O)C(=O)[C@]2(CC)[C@@H](C=C[C@@H]4[C@@H](O[C@H]5C[C@@H](O)[C@H](NC(=O)c6[nH]cc(Br)c6Br)[C@@H](C)O5)[C@@H](C)CC[C@@H]42)CCCC/C=C/[C@@]3(C)C=C1C(=O)O`, the MIC in [11] came out at 32 µg/mL (≈ 34.3 µM); in [2], 32 µg/mL (≈ 34.3 µM); in assay [3], 32 µg/mL (≈ 34.3 µM); in [7], 8 µg/mL (≈ 8.58 µM); in [16], 8 µg/mL (≈ 8.58 µM); in assay [8], 16 µg/mL (≈ 17.2 µM). In addition, the MIC turned out to be 1 µg/mL (≈ 1.07 µM) in assay [9] and 16 µg/mL (≈ 17.2 µM) in assay [18]. Also, the IC50 came to 3000 nM in assay [13] and 109 µM in assay [17].
Regarding `CC[C@H]1C[C@@]23OC(=O)C(=C2O)C(=O)[C@]2(CC)[C@@H](C=C[C@@H]4[C@@H](O[C@H]5C[C@@H](O)[C@H](NC(=O)c6[nH]ccc6Br)[C@@H](C)O5)[C@@H](C)CC[C@@H]42)CCCC/C=C/[C@@]3(C)C=C1C(=O)O`, the minimum inhibitory concentration (MIC) turned out to be 64 µg/mL (≈ 75 µM) in assay [11]; 16 µg/mL (≈ 18.7 µM) in [2]; 64 µg/mL (≈ 75 µM) in assay [3]; 8 µg/mL (≈ 9.37 µM) in assay [7]; 2 µg/mL (≈ 2.34 µM) in assay [16]; 16 µg/mL (≈ 18.7 µM) in assay [8]. Besides, the MIC in assay [9] and in assay [18] was 4 µg/mL (≈ 4.68 µM) each time. Also, the IC50 in assay [13] is 43000 nM; in assay [17], 143 µM.
For the molecule `CC[C@H]1C[C@@]23OC(=O)C(=C2O)C(=O)[C@]2(CC)[C@@H](C=C[C@@H]4[C@@H](O[C@H]5C[C@@H](O)[C@H](NC(=O)c6[nH]c(Cl)c(Cl)c6Cl)[C@@H](C)O5)[C@@H](C)CC[C@@H]42)CCCC/C=C/[C@@]3(C)C=C1C(=O)O`, the MIC in assay [11] is 16 µg/mL (≈ 18.2 µM); in [1], 4 µg/mL (≈ 4.55 µM); in assay [2] it was 2 µg/mL (≈ 2.28 µM); in assay [3], 8 µg/mL (≈ 9.11 µM); in assay [4] it was 4 µg/mL (≈ 4.55 µM); in [5], 4 µg/mL (≈ 4.55 µM). For the same molecule, the MIC was 4 µg/mL (≈ 4.55 µM) in [6]; 2 µg/mL (≈ 2.28 µM) in assay [12]; 8 µg/mL (≈ 9.11 µM) in assay [7]; 2 µg/mL (≈ 2.28 µM) in assay [14]; 2 µg/mL (≈ 2.28 µM) in assay [16]; 2 µg/mL (≈ 2.28 µM) in assay [8]. The results for the MIC in [9], in [10] and in assay [18] were 8 µg/mL (≈ 9.11 µM), above 128 µg/mL and 4 µg/mL (≈ 4.55 µM), respectively. The IC50 in assay [13] was found to be 2000 nM; in assay [17], 47 µM.
